How the values were obtained:
non-infected HFFs = conditions: literature report; cited from earlier work
[1] = system: HCMV in high density and low density HFFs; conditions: Roy S., 2015; cited from earlier work
pp28-luciferase HCMV = test: Add-on and removal experiments; type: cell-based, human cytomegalovirus; conditions: luciferase at 72 hpi
Method: HFFs were infected with the pp28-luciferase HCMV as described above. At 0, 6, 12, 24, 36 and 48 hpi, the media were replaced by the media containing OZ418 or GCV. For time-of-removal studies, media containing the compounds were removed at 0, 6, 12, 24, 36 and 48 hpi, cells were then washed three times with PBS, and drug-free medium was added. The cells were incubated at 37° C., and luciferase assays were carried out at 72 hpi.

[2] = system: pp28-luciferase Towne CMV strain; test: Drug combination with GCV (Bliss model); type: cell-based, human cytomegalovirus; conditions: FIGS. 4D and E
Method: Drug combinations were performed as previously reported (33). Briefly, 2×10^6 HFFs were seeded in a 96-well plate and infected with the pp28-luciferase Towne CMV strain at MOI=1. First, a dose response curve was generated for each drug individually to determine its EC50. […] Luciferase activity of the combination and each drug individually was quantified at 72 hpi. The Bliss model was used to calculate the effect of each drug combination on pp28-luciferase activity. In this model, drug combination represents the product of two probabilistically independent events as described in the following equation (23):
[formula] Where D is the drug concentration, m is the slope, and EC50 is the effective concentration resulting in 50% virus inhibition. The combined effect of two inhibitors (FU, fractional unaffected) is computed as the product of individual effects of the two inhibitors, FU1 and FU2. If the ratio of observed fold inhibition divided by the expected fold inhibition is greater than 1, the compounds are synergistic. If the ratio is less than 1, the combination is considered antagonistic, and if it equals to 1 the combination is additive.

[3] = system: pp28 luciferase-recombinant Towne HCMV; conditions: in the presence of viral DNA polymerase inhibitors; previously described; cited from earlier work
[4] = system: CDK 1, 2, 4, pRb and E2F1 expression; test: Immunoblot of CDKs, pRb and E2F1, HCMV-infected HFFs; type: cell-based, human
Method: Cell lysates were quantified for total protein content using Pierce bicinchoninic acid (BCA) protein assay kit (Thermo-Fisher Scientific, Waltham, Mass.). Equivalent amounts of protein were mixed with an equal volume of sample buffer (125 mM Tris-HCl [pH 6.8], 4% SDS 20% glycerol, 5% β-mercaptoethanol) and boiled at 100° C. for 10 min. Denatured proteins were resolved in Tris-glycine polyacrylamide gels (10% to 12%) and transferred to polyvinylidene difluoride membranes (Bio-Rad Laboratories, Hercules, Calif.) by electroblotting. Membranes were incubated in blocking solution (5% nonfat dry milk/BSA and 0.1% Tween 20 in PBS [PBST]) for 1 h, washed three times with PBST, and incubated primary antibodies diluted in 5% milk or BSA (for pRb) at 4° C. overnight. The membranes were washed with PBST, followed by incubation with horseradish peroxidase (HRP)-conjugated secondary antibodies in 5% milk/BSA for 1 h at room temperature. After three washing steps with PBST, protein bands were visualized by chemiluminescence using SuperSignal West Pico reagent (Pierce Chemical, Rockford, Ill.). […]

MTT cell viability assay = type: cell-based; conditions: human foreskin fibroblasts
Method: Six ozonizes have been tested for inhibition of HCMV replication and toxicity in human foreskin fibroblasts (Table 1, FIG. 1). The pp28 luciferase-recombinant Towne was used to measure HCMV replication, and an MTT assay—for cell viability.
Cells were seeded in 96-well plates, treated with various concentrations of ozonides and incubated at 37° C. for 3 days. Cell viability was determined by an MTT-based colorimetric assay (Sigma-Aldrich), and performed at the same time points as the antiviral assay.

[5] = system: pp28 luciferase-recombinant Towne HCMV; test: pp28-luciferase Towne HCMV replication assay in HFFs; type: cell-based, human cytomegalovirus; conditions: for Selectivity index (SI): CC50/EC50; for EC50: Human betaherpesvirus 5
Method: Six ozonizes have been tested for inhibition of HCMV replication and toxicity in human foreskin fibroblasts (Table 1, FIG. 1). The pp28 luciferase-recombinant Towne was used to measure HCMV replication, and an MTT assay—for cell viability. […] (FIG. 1).
The pp28-luciferase Towne CMV strain was constructed as previously described (31). The recombinant virus expresses luciferase under the control of UL99 (pp28) late promoter 48-72 h post infection (hpi). […] Luciferase activity highly correlates with plaque reduction assay. The Towne CMV (ATCC VR-977) and TB40 strains (ATCC VR-1578) were used for plaque reduction, DNA replication, and cell cycle assays.
HFFs passage 12-16 (ATCC, CRL-2088) were grown in Dulbecco's Modified Eagle Medium (DMEM) containing 10% fetal bovine serum (FBS) (Gibco, Carlsbad, Calif.) in a 5% CO2 incubator at 37° C. and used for infection with pp28-luciferase Towne CMV. HCT116 (Human Colorectal Carcinoma) (ATCC, CCL-247) cells were maintained in DMEM containing 10% fetal bovine serum.
To determine the effect of cell density/cycling on the anti-HCMV activity of ozonides, HFFs were plated at 0.5×10^6, 1×10^6, 2×10^6 or 3×10^6 cells/96 well-plate 24 h prior to infection. Infection was carried out at multiplicity of infection of 1 PFU/cell (MOI=1). Following 90 minute adsorption, media containing virus was removed and replaced by DMEM with 4% FBS (Gibco) containing anti-viral compounds. Infected treated HFFs were collected at 72 hpi and pp28 activity was quantified by a Luciferase Assay Kit (Promega, Madison, Wis.) on GloMaxH-Multi+ Detection System (Promega) according to manufacturer's instructions.

Row | SMILES | CC50 at 3 days (MTT cell viability assay) [µM] | Selectivity index (SI) [5] | EC50 [5] [µM] | further results
1 | C[C@H]1[C@H](OC(=O)CCC(=O)O)O[C@@H]2O[C@@]3(C)CC[C@H]4[C@H](C)CC[C@@H]1[C@@]24OO3 [AS, Artesunate, reference compound] | – | – | – | Cell cycle effect (reported) (non-infected HFFs): arrest cell cycle in early G1; Cell-density dependence of anti-HCMV activity (reported) [1]: cell-density dependent; Timing of anti-HCMV activity (pp28-luciferase HCMV): lost anti-HCMV activity when added after 24 h post infection; Combination effect with GCV against HCMV [2]: synergistic activity with GCV
2 | Nc1nc(O)c2ncn(COC(CO)CO)c2n1 [GCV, ganciclovir, reference compound] | – | – | – | Luciferase expression from UL99 (pp28) late promoter [3]: almost completely inhibited; Expression level of CDKs, pRb and E2F1 [4]: did not exhibit any effects on pRb/CDKs expression
3 | CC(C)(N)CNC(=O)C[C@H]1CC[C@]2(CC1)OO[C@]1(O2)C2CC3CC(C2)CC1C3 [OZ277, arterolane, reference compound] | 33.7 ± 1 | 1.98 ± 0.09 | 17.1 ± 1.31 | –
4 | c1cc([C@H]2CC[C@]3(CC2)OO[C@]2(O3)C3CC4CC(C3)CC2C4)ccc1OCCN1CCOCC1 [OZ439, artefenomel] | – | – | 13.2 ± 1.27 | –
5 | OC1CCN(CCOc2ccc([C@H]3CC[C@]4(CC3)OO[C@]3(O4)C4CC5CC(C4)CC3C5)cc2)CC1 [OZ513b] | 49.4 ± 3.67 | 3.14 ± 0.20 | 15.7 ± 0.87 | –
6 | O=C(O)C1CCN(CCOc2ccc([C@H]3CC[C@]4(CC3)OO[C@]3(O4)C4CC5CC(C4)CC3C5)cc2)CC1 [OZ721] | 45.5 ± 6.82 | 7.89 ± 0.35 | 5.75 ± 0.74 | –
7 | O=C(O)P(=O)(O)O [foscarnet] | – | – | – | Luciferase expression from UL99 (pp28) late promoter [3]: almost completely inhibited
